Reference: US11759455B2, “Substituted 1H-imidazo[4,5-b]pyridin-2(3H)-ones and their use as GLUN2B receptor modulators” (JANSSEN PHARMACEUTICA NV, priority 2016, dated 2023)
Where two headings read alike, the source gives them in different places.

Target: T1, human GluN1/GluN2B NMDA receptors (Homo sapiens, UniProt Q13224)
T1 construct: expressed in transfected cells
Test: Cell-based calcium flux (FLIPR) assay on cloned human NR1/NR2B ion channels expressed in mammalian cells (standard and HTS buffer variants);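 also: stable Tet-On inducible cell line, Ca2+ influx triggered by glutamate at about EC40 plus 10 µM glycine, fluorescent dye read-out over 5 min, normalized to control wells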

[1] = standard assay buffer (0.5 mM MgCl2 dye loading; 137 mM NaCl, 4 mM KCl assay buffer), human GluN1/GluN2B cells, read-out: NR2B IC50 (μM) standard assay
[2] = standard assay buffer (0.5 mM MgCl2 in dye loading buffer; 137 mM NaCl, 4 mM KCl in assay buffer), human GluN1/GluN2B, read-out: NR2B IC50 (μM) standard assay
[3] = HTS assay buffer (1.5 mM MgCl2 in dye loading buffer; 150 mM NaCl, 3 mM KCl in assay buffer), human GluN1/GluN2B, read-out: NR2B IC50 (μM) HTS assay

T1 sequence (Q13224 27-1484, other chains not shown): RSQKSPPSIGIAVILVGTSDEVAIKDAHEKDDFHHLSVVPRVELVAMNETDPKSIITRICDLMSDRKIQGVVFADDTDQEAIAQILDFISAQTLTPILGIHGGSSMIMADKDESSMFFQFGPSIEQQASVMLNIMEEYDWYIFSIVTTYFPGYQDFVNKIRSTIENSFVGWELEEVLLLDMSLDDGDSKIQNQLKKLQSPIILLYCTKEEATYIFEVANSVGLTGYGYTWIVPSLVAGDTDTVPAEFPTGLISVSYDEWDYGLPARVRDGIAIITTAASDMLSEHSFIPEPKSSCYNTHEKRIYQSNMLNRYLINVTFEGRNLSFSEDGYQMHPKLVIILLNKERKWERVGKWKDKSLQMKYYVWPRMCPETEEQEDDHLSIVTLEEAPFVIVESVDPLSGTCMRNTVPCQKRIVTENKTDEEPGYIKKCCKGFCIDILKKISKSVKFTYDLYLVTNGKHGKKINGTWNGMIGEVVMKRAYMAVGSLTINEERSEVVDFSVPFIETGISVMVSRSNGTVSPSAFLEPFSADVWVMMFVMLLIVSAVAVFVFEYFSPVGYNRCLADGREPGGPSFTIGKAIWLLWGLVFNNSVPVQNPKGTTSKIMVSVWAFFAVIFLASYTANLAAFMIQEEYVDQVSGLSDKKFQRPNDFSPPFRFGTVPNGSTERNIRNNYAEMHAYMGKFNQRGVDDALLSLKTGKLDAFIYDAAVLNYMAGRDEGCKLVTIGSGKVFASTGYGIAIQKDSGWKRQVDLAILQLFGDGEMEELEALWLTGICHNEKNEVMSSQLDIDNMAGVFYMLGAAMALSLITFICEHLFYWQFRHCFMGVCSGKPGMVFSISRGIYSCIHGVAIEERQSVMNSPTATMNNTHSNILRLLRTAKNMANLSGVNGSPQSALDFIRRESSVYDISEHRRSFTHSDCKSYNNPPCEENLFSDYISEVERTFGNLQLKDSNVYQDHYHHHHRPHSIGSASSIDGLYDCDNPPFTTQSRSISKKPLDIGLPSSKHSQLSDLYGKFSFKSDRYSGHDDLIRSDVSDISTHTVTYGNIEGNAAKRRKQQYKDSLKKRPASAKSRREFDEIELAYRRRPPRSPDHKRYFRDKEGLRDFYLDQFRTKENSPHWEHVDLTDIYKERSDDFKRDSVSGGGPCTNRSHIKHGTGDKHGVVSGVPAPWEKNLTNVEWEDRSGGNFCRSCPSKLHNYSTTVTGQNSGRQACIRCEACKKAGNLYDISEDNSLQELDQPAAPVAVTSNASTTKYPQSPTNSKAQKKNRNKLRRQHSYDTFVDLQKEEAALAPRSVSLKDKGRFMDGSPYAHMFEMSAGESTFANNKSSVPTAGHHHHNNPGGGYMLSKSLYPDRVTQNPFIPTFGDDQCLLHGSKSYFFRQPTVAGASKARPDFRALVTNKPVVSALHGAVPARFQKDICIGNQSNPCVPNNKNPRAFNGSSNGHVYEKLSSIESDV

Row | SMILES | IC50 [1] | further results
1 | Cn1c(=O)n(Cc2cccnn2)c2cc(-c3cccc(C(F)(F)F)c3)cnc21 [Example 378, 3-Methyl-1-(pyridazin-3-ylmethyl)-6-[3-(trifluoromethyl)phenyl]imidazo[4,5-b]pyridin-2-one] |  | IC50 [2]: 0.031 µM
2 | O=c1[nH]c2ncc(-c3cccc(C(F)(F)F)c3)cc2n1CCNC1CCC1 [Example 150, 1-[2-(Cyclobutylamino)ethyl]-6-[3-(trifluoromethyl)phenyl]-3H-imidazo[4,5-b]pyridin-2-one] | 0.277 µM | 
3 | Cc1cccc(-c2cnc3[nH]c(=O)n(CCN4CCC4)c3c2)c1C [Example 169, 1-[2-(Azetidin-1-yl)ethyl]-6-(2,3-dimethylphenyl)-3H-imidazo[4,5-b]pyridin-2-one] | 0.217 µM | 
4 | Cn1c(=O)n(CC(=O)N2CCC2)c2cc(-c3ccc(C(F)(F)C(F)(F)F)s3)cnc21 [Example 111, 1-[2-(Azetidin-1-yl)-2-oxo-ethyl]-3-methyl-6-[5-(1,1,2,2,2-pentafluoroethyl)-2-thienyl]imidazo[4,5-b]pyridin-2-one] | 0.037 µM | 
5 | CN(C)C(=O)Cn1c(=O)n(C)c2ncc(-c3csc(C(F)(F)F)c3)cc21 [Example 101, N,N-Dimethyl-2-[3-methyl-2-oxo-6-[5-(trifluoromethyl)-3-thienyl]imidazo[4,5-b]pyridin-1-yl]acetamide] | 0.019 µM | 
6 | Cn1ccc(Cn2c(=O)[nH]c3ncc(-c4ccc(F)cc4F)cc32)n1 [Example 132, 6-(2,4-Difluorophenyl)-1-[(1-methylpyrazol-3-yl)methyl]-3H-imidazo[4,5-b]pyridin-2-one] | 6.76 µM | 
7 | Cc1cccc(-c2cnc3c(c2)n(Cc2cncc(F)c2)c(=O)n3C)c1 [Example 350, 1-[(5-Fluoro-3-pyridyl)methyl]-3-methyl-6-(m-tolyl)imidazo[4,5-b]pyridin-2-one] |  | IC50 [2]: 0.029 µM
8 | Cc1cccc(-c2cnc3c(c2)n(Cc2cccnc2)c(=O)n3C)c1 [Example 356, 3-Methyl-6-(m-tolyl)-1-(3-pyridylmethyl)imidazo[4,5-b]pyridin-2-one] |  | IC50 [2]: 0.07 µM
9 | Cn1c(=O)n(CC(=O)O)c2cc(-c3cccc(C(F)(F)F)c3)cnc21 [Example 137, 2-[3-Methyl-2-oxo-6-[3-(trifluoromethyl)phenyl]imidazo[4,5-b]pyridin-1-yl]Acetic Acid] | > 10 µM | 
10 | Cc1noc(Cn2c(=O)n(C)c3ncc(-c4cccc(C(F)(F)F)c4)cc32)n1 [Example 76, 3-Methyl-1-[(3-methyl-1,2,4-oxadiazol-5-yl)methyl]-6-[3-(trifluoromethyl)phenyl]imidazo[4,5-b]pyridin-2-one] | 0.218 µM | 
11 | Cn1c(=O)n(CC(=O)NCCCCl)c2cc(-c3ccc(C(F)(F)F)s3)cnc21 [Example 532, N-(3-Chloropropyl)-2-[3-methyl-2-oxo-6-[5-(trifluoromethyl)-2-thienyl]imidazo[4,5-b]pyridin-1-yl]acetamide] |  | IC50 [2]: 0.862 µM
12 | Cn1c(=O)n(CC(=O)N2CCC2)c2cc(-c3ccc(F)c(C(F)F)c3)cnc21 [Example 584, 1-[2-(Azetidin-1-yl)-2-oxo-ethyl]-6-[3-(difluoromethyl)-4-fluoro-phenyl]-3-methyl-imidazo[4,5-b]pyridin-2-one] |  | IC50 [2]: 0.024 µM
13 | CCc1ccc(-c2cnc3c(c2)n(CC(=O)N2CC(F)C2)c(=O)n3C)s1 [Example 88, 6-(5-Ethyl-2-thienyl)-1-[2-(3-fluoroazetidin-1-yl)-2-oxo-ethyl]-3-methyl-imidazo[4,5-b]pyridin-2-one] | 0.02 µM | 
14 | COc1ccc(-c2cnc3[nH]c(=O)n(CC4CC4)c3c2)cc1F [Example 469, 1-(Cyclopropylmethyl)-6-(3-fluoro-4-methoxy-phenyl)-3H-imidazo[4,5-b]pyridin-2-one] |  | IC50 [3]: 0.944 µM
15 | Cc1c(F)ccc(-c2cnc3c(c2)n(Cc2cncnc2)c(=O)n3C)c1F [Example 69] | 0.033 µM | 
16 | Cn1c(=O)n(CC(=O)N2CC(F)C2)c2cc(-c3ccc(C(F)(F)F)s3)cnc21 [Example 327, 1-[2-(3-Fluoroazetidin-1-yl)-2-oxo-ethyl]-3-methyl-6-[5-(trifluoromethyl)-2-thienyl]imidazo[4,5-b]pyridin-2-one] |  | IC50 [2]: 0.071 µM
17 | CCOc1ccccc1-c1cnc2[nH]c(=O)n(CC(=O)NC)c2c1 [Example 441, 2-[6-(2-Ethoxyphenyl)-2-oxo-3H-imidazo[4,5-b]pyridin-1-yl]-N-methyl-acetamide] |  | IC50 [3]: 2.44 µM
18 | CN(C)C(=O)Cn1c(=O)n(C)c2ncc(-c3ccsc3C(F)(F)F)cc21 [Example 96, N,N-Dimethyl-2-[3-methyl-2-oxo-6-[2-(trifluoromethyl)-3-thienyl]imidazo[4,5-b]pyridin-1-yl]acetamide] | 0.522 µM | 
19 | Cn1c(=O)n(Cc2cccnn2)c2cc(-c3cccc(F)c3)cnc21 [Example 57, 6-(3-Fluorophenyl)-3-methyl-1-(pyridazin-3-ylmethyl)imidazo[4,5-b]pyridin-2-one] | 0.2 µM | 
20 | CCOc1ccc(F)cc1-c1cnc2[nH]c(=O)n(CC(=O)NCCOC)c2c1 [Example 443, 2-[6-(2-Ethoxy-5-fluoro-phenyl)-2-oxo-3H-imidazo[4,5-b]pyridin-1-yl]-N-(2-methoxyethyl)acetamide] |  | IC50 [3]: 1.32 µM
21 | Cc1cccc(-c2cnc3c(c2)n(CC(=O)N(C)C)c(=O)n3C)c1F [Example 427, 2-[6-(2-Fluoro-3-methyl-phenyl)-3-methyl-2-oxo-imidazo[4,5-b]pyridin-1-yl]-N,N-dimethyl-acetamide] |  | IC50 [2]: 0.041 µM
22 | Cn1c(=O)n(CCN2CCC2)c2cc(-c3cccc(C(F)(F)F)c3)cnc21 [Example 18, 1-[2-(Azetidin-1-yl)ethyl]-3-methyl-6-[3-(trifluoromethyl)phenyl]imidazo[4,5-b]pyridin-2-one] | 0.7 µM | 
23 | Cc1csc(-c2cnc3c(c2)n(CC(=O)N2CC(F)C2)c(=O)n3C)n1 [Example 86, 1-[2-(3-Fluoroazetidin-1-yl)-2-oxo-ethyl]-3-methyl-6-(4-methylthiazol-2-yl)imidazo[4,5-b]pyridin-2-one] | 1.6 µM | 
24 | Cc1c(F)ccc(-c2cnc3c(c2)n(CC(=O)N(C)C)c(=O)n3CF)c1F [Example 599, 2-[6-(2,4-Difluoro-3-methyl-phenyl)-3-(fluoromethyl)-2-oxo-imidazo[4,5-b]pyridin-1-yl]-N,N-dimethyl-acetamide] |  | IC50 [2]: 0.025 µM
25 | COCCNC(=O)Cn1c(=O)[nH]c2ncc(-c3ccc(F)c(Cl)c3)cc21 [Example 612, 2-[6-(3-Chloro-4-fluoro-phenyl)-2-oxo-3H-imidazo[4,5-b]pyridin-1-yl]-N-(2-methoxyethyl)acetamide] |  | IC50 [2]: 0.116 µM
26 | Cc1cc(-c2cnc3c(c2)n(Cc2cncnc2)c(=O)n3C)ccc1F [Example 48, 6-(4-Fluoro-3-methyl-phenyl)-3-methyl-1-(pyrimidin-5-ylmethyl)imidazo[4,5-b]pyridin-2-one] | 0.072 µM | 
27 | Cn1c(=O)n(CC(=O)N2CCC2)c2cc(-c3cc(F)c(F)c(F)c3)cnc21 [Example 411, 1-[2-(Azetidin-1-yl)-2-oxo-ethyl]-3-methyl-6-(3,4,5-trifluorophenyl)imidazo[4,5-b]pyridin-2-one] |  | IC50 [2]: 0.014 µM
28 | Cn1c(=O)n(CC(=O)N2CCC2)c2cc(-c3ccsc3C(F)(F)F)cnc21 [Example 95, 1-[2-(Azetidin-1-yl)-2-oxo-ethyl]-3-methyl-6-[2-(trifluoromethyl)-3-thienyl]imidazo[4,5-b]pyridin-2-one] | 0.096 µM | 

Further lines, with some results ahead:

Row | IC50 [1] | SMILES | further results
29 | 0.079 µM | Cc1cc(-c2cnc3[nH]c(=O)n(Cc4ccccn4)c3c2)ccc1F [Example 283, 6-(4-Fluoro-3-methyl-phenyl)-1-(2-pyridylmethyl)-3H-imidazo[4,5-b]pyridin-2-one] | 
30 | 0.123 µM | N#Cc1cccc(Cn2c(=O)[nH]c3ncc(-c4cccc(C(F)(F)F)c4)cc32)c1 [Example 212, 3-[[2-Oxo-6-[3-(trifluoromethyl)phenyl]-3H-imidazo[4,5-b]pyridin-1-yl]methyl]benzonitrile] | 
31 | 0.07 µM | O=C(Cn1c(=O)[nH]c2ncc(-c3cccc(C(F)(F)F)c3)cc21)NC1CCC1 [Example 190, N-Cyclobutyl-2-[2-oxo-6-[3-(trifluoromethyl)phenyl]-3H-imidazo[4,5-b]pyridin-1-yl]acetamide] | 
32 | 0.375 µM | N#Cc1ccccc1Cn1c(=O)[nH]c2ncc(-c3cccc(C(F)(F)F)c3)cc21 [Example 213, 2-[[2-Oxo-6-[3-(trifluoromethyl)phenyl]-3H-imidazo[4,5-b]pyridin-1-yl]methyl]benzonitrile] | 
33 | 0.128 µM | Cc1cncc(Cn2c(=O)[nH]c3ncc(-c4ccc(F)c(C)c4)cc32)c1 [Example 269, 6-(4-Fluoro-3-methyl-phenyl)-1-[(5-methyl-3-pyridyl)methyl]-3H-imidazo[4,5-b]pyridin-2-one] | 
34 | 0.8 µM | Cn1c(=O)n(Cc2ccccn2)c2cc(-c3cccc(C(F)(F)F)c3)cnc21 [Example 251, 3-Methyl-1-(2-pyridylmethyl)-6-[3-(trifluoromethyl)phenyl]imidazo[4,5-b]pyridin-2-one] | 
35 | 2.57 µM | CCCNCCn1c(=O)[nH]c2ncc(-c3cc(F)cc(F)c3)cc21 [Example 189, 6-(3,5-Difluorophenyl)-1-[2-(propylamino)ethyl]-3H-imidazo[4,5-b]pyridin-2-one] | 
36 | 0.083 µM | O=c1[nH]c2ncc(-c3cccc(C(F)(F)F)c3)cc2n1Cc1ccccn1 [Example 228, 1-(2-Pyridylmethyl)-6-[3-(trifluoromethyl)phenyl]-3H-imidazo[4,5-b]pyridin-2-one] | 
37 | 0.065 µM | O=c1[nH]c2ncc(-c3cccc(F)c3)cc2n1Cc1cccnc1 [Example 290, 6-(3-fluorophenyl)-1-(3-pyridylmethyl)-3H-imidazo[4,5-b]pyridin-2-one] | 
38 | 0.182 µM | Cn1c(=O)n(CC(=O)N2CCC(F)(F)C2)c2cc(-c3cccc(C(F)(F)F)c3)cnc21 [Example 196, 1-[2-(3,3-Difluoropyrrolidin-1-yl)-2-oxo-ethyl]-3-methyl-6-[3-(trifluoromethyl)phenyl]imidazo[4,5-b]pyridin-2-one] | 
